Data from US9079895B2, “Morpholino compounds, uses and methods” (University of Dundee, priority 2012, dated 2015).

Assays:
Conditions in all cases: average of at least two experiments
[1] = target: 5HT1d receptor (Homo sapiens (Human), UniProt P28221); test: Secondary radioligand binding assay, 5HT1d; set-up: key to Ki 5HT1d: “—” indicates that a binding interaction was not detected;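 further: competition binding against a radioligand on membranes from transfected cell lines, 1.5 h at room temperature, filter-retained radioactivity counted by liquid scintillation, total binding plotted versus log competitor concentration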
5HT1d receptor, sequence (P28221 whole entry): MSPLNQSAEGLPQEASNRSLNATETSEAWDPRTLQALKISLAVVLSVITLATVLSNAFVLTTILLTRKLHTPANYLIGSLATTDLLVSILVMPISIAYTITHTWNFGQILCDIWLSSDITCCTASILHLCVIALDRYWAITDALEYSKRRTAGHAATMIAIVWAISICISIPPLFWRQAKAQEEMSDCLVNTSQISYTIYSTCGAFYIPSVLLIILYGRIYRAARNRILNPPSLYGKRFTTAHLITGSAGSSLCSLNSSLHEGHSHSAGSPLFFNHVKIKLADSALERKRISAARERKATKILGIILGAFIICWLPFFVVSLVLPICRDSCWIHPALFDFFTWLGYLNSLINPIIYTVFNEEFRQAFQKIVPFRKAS
Description: (§9) Assay Buffer: Standard Binding Buffer (50 mM Tris-HCl, 10 mM MgCl2, 1 mM EDTA, pH 7.4)
(§10) Membrane Fraction Source: Transiently or stably transfected cell lines (e.g., HEK293, COS, CHO, NIH3T3)

[2] = target: 5HT1e receptor (Homo sapiens (Human), UniProt P28566); test: Secondary radioligand binding assay, 5HT1e; set-up: key: “—” indicates that a binding interaction was not detected;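 further: competition binding against a radioligand on membranes from transfected cell lines, 1.5 h at room temperature, bound radioactivity counted by liquid scintillation after filtration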
5HT1e receptor, sequence (P28566 whole entry): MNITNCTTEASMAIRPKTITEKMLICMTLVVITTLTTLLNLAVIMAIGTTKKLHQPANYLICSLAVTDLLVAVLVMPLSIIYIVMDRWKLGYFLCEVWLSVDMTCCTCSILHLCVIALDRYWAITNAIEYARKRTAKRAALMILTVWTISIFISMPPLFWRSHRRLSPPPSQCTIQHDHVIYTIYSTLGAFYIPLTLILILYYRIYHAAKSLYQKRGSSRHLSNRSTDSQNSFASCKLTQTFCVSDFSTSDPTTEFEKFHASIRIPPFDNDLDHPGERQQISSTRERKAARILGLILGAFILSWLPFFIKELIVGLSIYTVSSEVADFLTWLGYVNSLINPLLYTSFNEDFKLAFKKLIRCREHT
Description: as §9, §10

[3] = target: 5HT2b receptor (Homo sapiens (Human), UniProt P41595); test: Secondary radioligand binding assay, 5HT2b; set-up: key to Ki 5HT2b: “—” indicates that a binding interaction was not detected;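 further: competition binding against a radioligand on membranes from transfected cell lines, 1.5 h incubation at room temperature, filter-retained radioactivity counted by liquid scintillation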
5HT2b receptor, sequence (P41595 whole entry): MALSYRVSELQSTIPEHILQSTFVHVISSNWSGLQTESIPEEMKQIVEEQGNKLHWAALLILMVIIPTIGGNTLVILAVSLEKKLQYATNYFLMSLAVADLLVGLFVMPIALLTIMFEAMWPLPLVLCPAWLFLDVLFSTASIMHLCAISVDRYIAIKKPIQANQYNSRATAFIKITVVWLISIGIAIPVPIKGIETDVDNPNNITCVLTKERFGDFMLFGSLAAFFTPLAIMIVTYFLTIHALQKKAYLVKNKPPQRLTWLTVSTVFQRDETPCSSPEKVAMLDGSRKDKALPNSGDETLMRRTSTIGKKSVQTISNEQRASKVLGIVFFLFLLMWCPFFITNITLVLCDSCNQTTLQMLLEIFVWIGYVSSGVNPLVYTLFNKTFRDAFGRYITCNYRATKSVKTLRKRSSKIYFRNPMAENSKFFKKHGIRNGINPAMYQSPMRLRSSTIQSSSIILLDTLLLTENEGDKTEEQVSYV
Description: as §9, §10

[4] = target: 5HT3 receptor (Homo sapiens (Human), UniProt P46098); test: Secondary radioligand binding assay, 5HT3; set-up: key: “—” indicates that a binding interaction was not detected;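 further: radioligand competition binding on membranes from transfected cell lines, 1.5 h incubation at room temperature, filter-retained radioactivity measured by liquid scintillation counting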
5HT3 receptor, sequence (P46098 24-478): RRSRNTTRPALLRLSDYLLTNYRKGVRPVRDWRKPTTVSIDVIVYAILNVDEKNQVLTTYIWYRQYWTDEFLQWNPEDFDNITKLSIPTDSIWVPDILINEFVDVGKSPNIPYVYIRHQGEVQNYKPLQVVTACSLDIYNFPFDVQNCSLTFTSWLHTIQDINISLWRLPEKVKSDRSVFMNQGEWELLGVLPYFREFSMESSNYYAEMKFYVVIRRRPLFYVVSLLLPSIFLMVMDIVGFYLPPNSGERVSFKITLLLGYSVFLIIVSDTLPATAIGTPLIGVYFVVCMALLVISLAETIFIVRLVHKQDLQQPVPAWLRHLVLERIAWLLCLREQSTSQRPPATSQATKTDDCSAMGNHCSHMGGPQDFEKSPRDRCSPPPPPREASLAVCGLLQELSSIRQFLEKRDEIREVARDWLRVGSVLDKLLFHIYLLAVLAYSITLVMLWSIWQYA
Description: as §9, §10

[5] = target: 5HT5 receptor (Homo sapiens (Human), UniProt P47898); test: Secondary radioligand binding assay, 5HT5; set-up: key: “—” indicates that a binding interaction was not detected;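 further: competitive radioligand displacement on membranes from transfected cell lines, incubated at room temperature in the dark, filter-retained radioactivity counted by liquid scintillation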
5HT5 receptor, sequence (P47898 whole entry): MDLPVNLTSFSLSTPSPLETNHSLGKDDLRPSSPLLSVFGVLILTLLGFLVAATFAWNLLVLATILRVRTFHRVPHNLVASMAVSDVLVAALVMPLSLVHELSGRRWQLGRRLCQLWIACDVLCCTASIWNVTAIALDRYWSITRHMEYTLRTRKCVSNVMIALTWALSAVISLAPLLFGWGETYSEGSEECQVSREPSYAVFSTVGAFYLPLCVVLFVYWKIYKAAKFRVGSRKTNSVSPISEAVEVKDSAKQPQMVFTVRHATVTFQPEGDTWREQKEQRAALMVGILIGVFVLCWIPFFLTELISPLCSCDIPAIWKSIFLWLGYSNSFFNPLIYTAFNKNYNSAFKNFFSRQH
Description: as §9, §10

[6] = target: 5HT6 receptor (Homo sapiens (Human), UniProt P50406); test: Secondary radioligand binding assay, 5HT6; set-up: key: “—” indicates that a binding interaction was not detected;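 further: competition displacement of radioligand from membranes of transfected cell lines expressing the receptor, 1.5 h at room temperature, bound radioactivity counted by scintillation after filtration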
Description: as §9, §10

[7] = target: 5HT7 receptor (Homo sapiens (Human), UniProt P34969); test: Secondary radioligand binding assay, 5HT7; set-up: key to Ki 5HT7: “—” indicates that a binding interaction was not detected;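 further: competition of test compound with radioligand for binding to membranes from transfected cell lines, 1.5 h incubation at room temperature, filter-bound radioactivity read by liquid scintillation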
5HT7 receptor, sequence (P34969 whole entry): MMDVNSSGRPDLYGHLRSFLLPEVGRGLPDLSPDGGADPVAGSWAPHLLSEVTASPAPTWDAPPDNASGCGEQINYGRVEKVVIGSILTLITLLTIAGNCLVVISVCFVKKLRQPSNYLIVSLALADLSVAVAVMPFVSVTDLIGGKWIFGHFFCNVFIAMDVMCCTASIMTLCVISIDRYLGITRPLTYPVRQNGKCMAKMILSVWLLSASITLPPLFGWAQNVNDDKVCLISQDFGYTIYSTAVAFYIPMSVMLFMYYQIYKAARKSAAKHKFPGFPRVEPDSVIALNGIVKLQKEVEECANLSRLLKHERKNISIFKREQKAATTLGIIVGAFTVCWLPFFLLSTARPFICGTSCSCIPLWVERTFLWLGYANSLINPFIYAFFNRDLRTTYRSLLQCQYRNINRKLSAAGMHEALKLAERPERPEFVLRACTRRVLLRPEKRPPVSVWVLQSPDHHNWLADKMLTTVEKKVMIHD
Description: as §9, §10

[8] = target: Alpha1A adrenergic receptor (Homo sapiens (Human), UniProt P35348); test: Secondary radioligand binding assay, Alpha1A; set-up: key to Ki Alpha1A: “—” indicates that a binding interaction was not detected
Alpha1A adrenergic receptor, sequence (P35348 whole entry): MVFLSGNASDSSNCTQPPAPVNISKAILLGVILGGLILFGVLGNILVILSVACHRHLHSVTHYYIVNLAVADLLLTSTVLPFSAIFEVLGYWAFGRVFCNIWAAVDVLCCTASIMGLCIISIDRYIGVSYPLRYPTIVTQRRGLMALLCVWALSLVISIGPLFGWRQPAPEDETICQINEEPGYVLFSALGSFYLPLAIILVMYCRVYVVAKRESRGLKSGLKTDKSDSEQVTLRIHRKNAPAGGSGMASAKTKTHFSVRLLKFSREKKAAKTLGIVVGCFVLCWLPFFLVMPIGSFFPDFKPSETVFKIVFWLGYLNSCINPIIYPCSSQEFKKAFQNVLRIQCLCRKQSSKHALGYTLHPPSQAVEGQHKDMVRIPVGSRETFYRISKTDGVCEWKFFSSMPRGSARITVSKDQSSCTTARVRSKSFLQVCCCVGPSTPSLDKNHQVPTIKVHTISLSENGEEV
Text: (§1) 1. Secondary Radioligand Binding Assays The detailed experimental protocols for the radioligand and functional receptor assays are available on the NIMH PDSP website at http://pdsp.med.unc.edu/UNC-CH %20Protocol %20Book.pdf. Raw data (dpm) representing total radioligand binding (i.e. specific+non-specific binding) are plotted as a function of the logarithm of the molar concentration of the competitor (i.e. test or reference compound). […] C. Adrenergic Receptors: α1A, α1B, α2A, α2B, α2C, β1, β2, β3 Assay Buffers: For α1 receptors, α1 Binding Buffer (20 mM Tris-HCl, 145 mM NaCl, pH 7.4); for α2 receptors, α2 Binding Buffer (50 mM Tris-HCl, 5 mM MgCl2, pH 7.7); for β receptors, β Binding Buffer (50 mM Tris-HCl, 3 mM MnCl2, pH 7.7) Membrane Fraction Source: Transiently or stably transfected cell lines (e.g. HEK293, COS, CHO, NIH3T3) Protocol adapted from Arango et al. […] (1990), Gen. Psychiatry, 47: 1038-1047. The method is carried out in the manner described for the serotonin receptor assay above, except where described below. Eleven dilutions (5× assay concentration) of the test and reference (see Table 20) compounds are prepared in the appropriate buffer by serial dilution, as previously described. Radioligand is diluted to five times the assay concentration (see Table 21) in the appropriate buffer. […] Four rapid 500-μl washes are performed with chilled distilled water (for α1 and β receptors) or 0.1% polyethyleneimine (for α2 receptors) to reduce non-specific binding. Filters are placed in 6 ml scintillation tubes and allowed to dry overnight and the samples are treated to obtain data as described above. [table]

[9] = target: Alpha1B adrenergic receptor (Homo sapiens (Human), UniProt P35368); test: Secondary radioligand binding assay, Alpha1B; set-up: key to Ki Alpha1B: “—” indicates that a binding interaction was not detected
Alpha1B adrenergic receptor, sequence (P35368 whole entry): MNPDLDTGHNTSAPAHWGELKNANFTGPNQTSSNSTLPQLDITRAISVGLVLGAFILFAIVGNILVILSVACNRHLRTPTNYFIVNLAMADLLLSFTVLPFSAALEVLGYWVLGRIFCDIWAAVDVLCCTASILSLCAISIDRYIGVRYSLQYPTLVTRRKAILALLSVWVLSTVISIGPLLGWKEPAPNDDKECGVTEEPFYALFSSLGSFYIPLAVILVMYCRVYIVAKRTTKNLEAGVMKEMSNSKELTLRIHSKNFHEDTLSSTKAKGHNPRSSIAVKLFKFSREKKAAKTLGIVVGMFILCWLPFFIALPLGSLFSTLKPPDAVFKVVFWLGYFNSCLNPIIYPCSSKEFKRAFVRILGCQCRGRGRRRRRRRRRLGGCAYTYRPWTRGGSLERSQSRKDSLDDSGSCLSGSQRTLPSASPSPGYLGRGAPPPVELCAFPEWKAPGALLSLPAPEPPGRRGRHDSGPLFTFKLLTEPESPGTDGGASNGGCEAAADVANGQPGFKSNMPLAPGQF
Text: as §1

[10] = target: dopamine D1 receptor (Homo sapiens (Human), UniProt P21728); test: Secondary radioligand binding assay, D1; set-up: key to Ki D1: “—” indicates that a binding interaction was not detected
dopamine D1 receptor, sequence (P21728 whole entry): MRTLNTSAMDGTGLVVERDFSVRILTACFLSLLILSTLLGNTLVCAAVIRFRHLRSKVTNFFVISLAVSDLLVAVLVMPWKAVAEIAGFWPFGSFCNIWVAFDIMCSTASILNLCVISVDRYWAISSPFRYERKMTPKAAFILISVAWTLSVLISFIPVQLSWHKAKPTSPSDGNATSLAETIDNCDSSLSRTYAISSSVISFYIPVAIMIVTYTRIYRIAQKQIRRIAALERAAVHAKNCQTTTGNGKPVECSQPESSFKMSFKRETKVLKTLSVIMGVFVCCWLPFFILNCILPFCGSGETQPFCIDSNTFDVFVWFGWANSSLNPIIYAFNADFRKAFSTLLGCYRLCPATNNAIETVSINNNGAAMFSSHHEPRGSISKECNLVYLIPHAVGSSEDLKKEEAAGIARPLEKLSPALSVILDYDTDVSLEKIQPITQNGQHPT
Description: (§2) 1. Secondary Radioligand Binding Assays
(§3) The detailed experimental protocols for the radioligand and functional receptor assays are available on the NIMH PDSP website at http://pdsp.med.unc.edu/UNC-CH %20Protocol %20Book.pdf.
(§4) Radioligand is diluted to five times the assay concentration (see Table 18) in Standard Binding Buffer. Typically, the assay concentration of radioligand is a value between one half the KD and the KD of a particular radioligand at its target. 50 μl aliquots of radioligand are dispensed into the wells of a 96-well plate containing 100 μl of Standard Binding Buffer. Then, duplicate 50 μl aliquots of the test and reference compound dilutions are added.
(§5) The 250 μl reactions are incubated at room temperature and shielded from light (to prevent photolysis of light-sensitive ligands) for 1.5 hours, then harvested by rapid filtration onto Whatman GF/B glass fiber filters pre-soaked with 0.3% polyethyleneimine using a 96-well Brandel harverster. Four rapid 500 μl washes are performed with chilled Standard Binding Buffer to reduce non-specific binding. Filters are placed in 6 ml scintillation tubes and allowed to dry overnight. The next day, 4 ml of EcoScint scintillation cocktail (National Diagnostics) are added to each tube. The tubes are capped, labeled, and counted by liquid scintillation counting. […] The filter mats are dried, then scintillant is melted onto the filters and the radioactivity retained on the filters is counted in a Microbeta scintillation counter.
(§6) Raw data (dpm) representing total radioligand binding (i.e. specific+non-specific binding) are plotted as a function of the logarithm of the molar concentration of the competitor (i.e. test or reference compound).
(§7) B. Dopamine Receptors: D1, D2, D3, D4, D5 Assay Buffers: Dopamine Binding Buffer (50 mM NaCl, 50 mM HEPES-HCl, 5 mM MgCl2, 0.5 mM EDTA, pH 7.4) Membrane Fraction Source: Transiently or stably transfected cell lines (e.g. HEK293, COS, CHO, NIH3T3)
(§8) The method is carried out in the manner described for the serotonin receptor assay above. Eleven dilutions (5× assay concentration) of the test and reference (see Table 19) compounds are prepared in Dopamine Binding Buffer by serial dilution, as previously described. Radioligand is diluted to five times the assay concentration (see Table 20) in Dopamine Binding Buffer.

[11] = target: dopamine D2 receptor (Homo sapiens (Human), UniProt P14416); test: Secondary radioligand binding assay, D2; set-up: key to Ki D2: “—” indicates that a binding interaction was not detected
dopamine D2 receptor, sequence (P14416 whole entry, species assumed): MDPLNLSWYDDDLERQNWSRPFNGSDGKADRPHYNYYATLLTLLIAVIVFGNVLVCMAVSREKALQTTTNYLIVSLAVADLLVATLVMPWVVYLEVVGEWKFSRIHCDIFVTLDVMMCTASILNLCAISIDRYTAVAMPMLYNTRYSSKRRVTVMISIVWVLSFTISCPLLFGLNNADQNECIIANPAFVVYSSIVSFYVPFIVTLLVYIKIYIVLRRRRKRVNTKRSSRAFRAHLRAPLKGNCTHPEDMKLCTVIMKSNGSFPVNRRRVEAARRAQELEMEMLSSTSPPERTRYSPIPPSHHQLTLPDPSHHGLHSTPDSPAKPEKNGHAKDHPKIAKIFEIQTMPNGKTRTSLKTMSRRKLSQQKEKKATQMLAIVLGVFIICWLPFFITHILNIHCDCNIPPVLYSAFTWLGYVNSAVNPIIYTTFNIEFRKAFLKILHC
Description: as §2, §3, §4, §5, §6, §7, §8

[12] = target: dopamine D3 receptor (Homo sapiens (Human), UniProt P35462); test: Secondary radioligand binding assay, D3; set-up: key to Ki D3: “—” indicates that a binding interaction was not detected
dopamine D3 receptor, sequence (P35462 whole entry, species assumed): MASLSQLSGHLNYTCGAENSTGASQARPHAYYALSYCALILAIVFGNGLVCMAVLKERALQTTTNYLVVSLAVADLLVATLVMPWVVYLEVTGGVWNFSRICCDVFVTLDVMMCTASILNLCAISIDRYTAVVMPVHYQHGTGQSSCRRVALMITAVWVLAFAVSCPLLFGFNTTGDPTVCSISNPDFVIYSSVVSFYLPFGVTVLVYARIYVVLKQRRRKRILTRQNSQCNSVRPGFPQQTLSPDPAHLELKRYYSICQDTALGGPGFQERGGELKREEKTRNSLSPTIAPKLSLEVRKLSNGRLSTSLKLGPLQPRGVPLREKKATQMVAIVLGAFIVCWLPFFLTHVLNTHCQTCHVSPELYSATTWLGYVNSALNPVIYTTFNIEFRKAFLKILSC
Description: as §2, §3, §4, §5, §6, §7, §8

## CC1Cc2ccccc2N1C(=O)CN1CCO[C@@H](COc2cccc(Cl)c2)C1 (stereo partly drawn) [Compound 65]
[1]
  Ki 5HT1d: —
[2]
  Ki 5HT1e: —
[3]
  Ki: 0.333 µM
[4]
  Ki 5HT3: —
[5]
  Ki 5HT5: —
[6]
  Ki 5HT6: —
[7]
  Ki 5HT7: —
[8]
  Ki Alpha1A: —
[9]
  Ki Alpha1B: —
[10]
  Ki D1: —
[11]
  Ki D2: —
[12]
  Ki D3: —

## Clc1cncc(OC[C@@H]2CN(CCN3CCc4ccccc43)CCO2)c1 [Compound 27s, (S)-2-(((5-Chloropyridin-3-yl)oxy)methyl)-4-(2-(indolin-1-yl)ethyl)morpholine]
[1]
  Ki 5HT1d: —
[2]
  Ki 5HT1e: —
[3]
  Ki 5HT2b: —
[4]
  Ki 5HT3: —
[5]
  Ki 5HT5: —
[6]
  Ki 5HT6: —
[7]
  Ki 5HT7: —
[8]
  Ki Alpha1A: —
[9]
  Ki Alpha1B: —
[10]
  Ki: 5.85 µM
[11]
  Ki: > 10 µM
[12]
  Ki D3: —

## Clc1cccc(OC[C@H]2CN(CCN3CCc4ccccc43)CCO2)c1 [Compound 23r, (R)-2-((3-Chlorophenoxy)methyl)-4-(2-(indolin-1-yl)ethyl)morpholine]
[1]
  Ki 5HT1d: —
[2]
  Ki 5HT1e: —
[4]
  Ki 5HT3: —
[5]
  Ki 5HT5: —
[6]
  Ki 5HT6: —
[7]
  Ki 5HT7: —
[8]
  Ki Alpha1A: —
[9]
  Ki Alpha1B: —
[10]
  Ki D1: —
[11]
  Ki: > 10 µM
[12]
  Ki D3: —

## Cc1ccc(OC[C@H]2CN(CCN3CCc4ccccc43)CCO2)cn1 [Compound 28r, (R)-4-(2-(Indolin-1-yl)ethyl)-2-(((6-methylpyridin-3-yl)oxy)methyl)morpholine]
[1]
  Ki 5HT1d: —
[2]
  Ki 5HT1e: —
[3]
  Ki 5HT2b: —
[4]
  Ki 5HT3: —
[5]
  Ki 5HT5: —
[6]
  Ki 5HT6: —
[7]
  Ki 5HT7: —
[8]
  Ki Alpha1A: —
[9]
  Ki Alpha1B: —
[10]
  Ki D1: —
[11]
  Ki D2: —
[12]
  Ki D3: —

## Cc1ccccc1OC[C@H]1CN(CC(=O)N2c3ccccc3CC2C)CCO1 (stereo partly drawn) [Compound 66]
[1]
  Ki 5HT1d: —
[2]
  Ki 5HT1e: —
[3]
  Ki: 0.77 µM
[4]
  Ki 5HT3: —
[5]
  Ki 5HT5: —
[6]
  Ki 5HT6: —
[7]
  Ki 5HT7: —
[8]
  Ki Alpha1A: —
[9]
  Ki Alpha1B: —
[10]
  Ki D1: —
[11]
  Ki D2: —
[12]
  Ki D3: —

## O=C(CN1CCO[C@@H](COc2ccccn2)C1)N1CCc2ccccc21 [Compound 14r, (R)-1-(Indolin-1-yl)-2-(2-((pyridin-2-yloxy)methyl)morpholino)ethanone]
[1]
  Ki 5HT1d: —
[2]
  Ki 5HT1e: —
[3]
  Ki 5HT2b: —
[4]
  Ki 5HT3: —
[5]
  Ki 5HT5: —
[6]
  Ki 5HT6: —
[7]
  Ki 5HT7: —
[8]
  Ki Alpha1A: —
[9]
  Ki Alpha1B: —
[10]
  Ki D1: —
[11]
  Ki D2: —
[12]
  Ki D3: —

## COc1cccc(OC[C@@H]2CN(CCN3CCc4ccccc43)CCO2)c1 [Compound 25s, (S)-4-(2-(Indolin-1-yl)ethyl)-2-((3-methoxyphenoxy)methyl)morpholine]
[1]
  Ki: 1.98 µM
[2]
  Ki 5HT1e: —
[4]
  Ki 5HT3: —
[5]
  Ki 5HT5: —
[6]
  Ki 5HT6: —
[7]
  Ki 5HT7: —
[8]
  Ki: 8.35 µM
[9]
  Ki Alpha1B: —
[10]
  Ki: 8.37 µM
[11]
  Ki: 10 µM
[12]
  Ki: 8.29 µM

## Clc1cccc(OC[C@@H]2CN(CCN3CCc4ccccc43)CCO2)c1 [Compound 23s, (S)-2-((3-chlorophenoxy)methyl)-4-(2-(indolin-1-yl)ethyl)morpholine]
[1]
  Ki: 1.12 µM
[2]
  Ki 5HT1e: —
[4]
  Ki 5HT3: —
[5]
  Ki 5HT5: —
[6]
  Ki 5HT6: —
[7]
  Ki 5HT7: —
[8]
  Ki: 9.04 µM
[9]
  Ki: 6.64 µM
[10]
  Ki: 2.04 µM
[11]
  Ki: 1.89 µM
[12]
  Ki: 6.65 µM
